# Results published in patent US20100028485A1, “TALAROMYCES EMERSONII ENZYME SYSTEMS” (priority 2006, published 2010).
# Tests used:
# Type in all cases: biochemical, Talaromyces emersonii
# EG V, EG VI and EG VII = assay: Effects of metal ions, reagents, phenolics and glycosides stated for all three enzymes; conditions: for inhibition by sulphydryl reagents: in the presence or absence of substrate
# Procedure: (§1) Substrate specificity on various polysaccharides and synthetic glycosides was evaluated by 15 measuring activity against a wide variety of carbohydrates (BBG, lichenan, CMC, other polysaccharides and synthetic glycosides) using the normal β-glucanase assay procedure. • Effects Of Metal Ions, Chemical Modification Reagents And Potential Inhibitors A range of monovalent, divalent and heavy metal ions, at final assay concentrations of 1.0 mM, were investigated for their potential effects on the activities of EG V, EG VI and EG VII, by incubating the enzymes with the chemicals and then conducting the normal enzyme assay. Finally, the inhibitor effects of glycosides, such as disaccharides, lactones and flavanoid glycosides on the purified enzymes were examined. Specified concentrations of each glycoside were included in normal assay cocktails and residual activity determined by comparison with controls (no glycoside present).
# (§2) Activity was expressed as a % relative to a control (no metal ion present in incubation mixture). In general, heavy metal ions are thought to inactivate enzymes by forming covalent salts with cysteine, histidine or carboxyl groups. […] A selection of reagents known to modify amino acid R-groups in proteins were tested for their effects on EG V, EG VI and EG VII, both in the absence and presence of substrate (substrate-protective effects could be observed in this manner) (see Table 6).
# EG V = assay: Effects of metal ions, chemical modification reagents, detergents and potential inhibitors on EG V; conditions: for EG V activity, Enzyme + reagent (control = 100.0): Preincubation of enzyme with reagent for 30 min (50 C) prior to addition of substrate; for EG V activity, Substrate + reagent (control = 100.0): Preincubation of substrate with reagent for 30 min (50 C) prior to addition of enzyme
# Procedure: as §1, §2
# EG VI = assay: Effects of metal ions, chemical modification reagents, detergents and potential inhibitors on EG VI; conditions: for decrease in activity of EG VI: 1 mM metal ion, relative to control without metal ion; for EV VI activity, Enzyme + reagent (control = 100.0): Preincubation of enzyme with reagent for 30 min (50 C) prior to addition of substrate; for EGVI activity, Substrate + reagent (control = 100.0): Preincubation of substrate with reagent for 30 min (50 C) prior to addition of enzyme
# Procedure: as §1, §2
# EG VII = assay: Effects of metal ions, chemical modification reagents, detergents and potential inhibitors on EG VII; conditions: for EG VII activity, Enzyme + reagent (control = 100.0): Preincubation of enzyme with reagent for 30 min (50 C) prior to addition of substrate; for EG VII activity, Substrate + reagent (control = 100.0): Preincubation of substrate with reagent for 30 min (50 C) prior to addition of enzyme
# Procedure: as §1, §2
smiles,measurement,setting,value
[Mg+2] [Mg^2+],effect of metal ion on activity of all three enzymes,"EG V, EG VI and EG VII; 1 mM metal ion",enhanced the activity
same,decrease of EG V activity by SO4^2− salt relative to Cl^− salt of same cation,EG V; 1 mM,54.2%
same,decrease of EG VI activity by SO4^2− salt relative to Cl^− salt of same cation,EG VI; 1 mM,50.1%
[Fe+2] [Fe^2+],decrease in activity of all three enzymes,"EG V, EG VI and EG VII; 1 mM metal ion",35.4-88.0%
same,effect of metal ion on activity of all three enzymes,"EG V, EG VI and EG VII; 1 mM metal ion",markedly decreased activity
same,increase in activity of EG V,"EG V; 1 mM metal ion, relative to control without metal ion",20%
same,decrease in activity of EG VI,EG VI,38.6%
same,decrease in activity of EG VI,EG VI; listed as Fe^3+,53.6-59.3%
same,enhancement of EG VII activity by SO4^2− salt relative to corresponding Cl^− salt,EG VII; 1 mM,~4.5 fold
same,effect of metal ion on EG VII,EG VII; 1 mM metal ion,minimum effects
O=C(O)c1cc[c]([Hg+])cc1.[OH-] [p-Hydroxymercuribenzoate],inhibition by sulphydryl reagents,"EG V, EG VI and EG VII",little or no inhibition
same,"EG V activity, Enzyme + reagent (control = 100.0)",EG V,92.8
same,"EG V activity, Substrate + reagent (control = 100.0)",EG V,261.7
same,"EV VI activity, Enzyme + reagent (control = 100.0)",EG VI,98.3
same,"EGVI activity, Substrate + reagent (control = 100.0)",EG VI,125.0
same,"EG VII activity, Enzyme + reagent (control = 100.0)",EG VII,99.5
same,"EG VII activity, Substrate + reagent (control = 100.0)",EG VII,94.8
NC(=O)CI [Iodoacetamide],inhibition by sulphydryl reagents,"EG V, EG VI and EG VII",little or no inhibition
same,"EG V activity, Enzyme + reagent (control = 100.0)",EG V,103.6
same,"EG V activity, Substrate + reagent (control = 100.0)",EG V,87.4
same,"EV VI activity, Enzyme + reagent (control = 100.0)",EG VI,99.9
same,"EGVI activity, Substrate + reagent (control = 100.0)",EG VI,122.6
same,"EG VII activity, Enzyme + reagent (control = 100.0)",EG VII,101.6
same,"EG VII activity, Substrate + reagent (control = 100.0)",EG VII,83.7
[Hg+2] [Hg^2+],effect of metal ion on activity of all three enzymes,"EG V, EG VI and EG VII; 1 mM metal ion",Almost total inhibition
O=C[C@H](O)[C@@H](O)[C@H](O[C@@H]1O[C@H](CO)[C@@H](O)[C@H](O)[C@H]1O)[C@H](O)CO [cellobiose],concentrations that markedly inhibited all three enzymes,"EG V, EG VI and EG VII",50 to 75 mM
[Zn+2] [Zn^230],effect of metal ion on activity of all three enzymes,"EG V, EG VI and EG VII; 1 mM metal ion",enhanced the activity
[Mo] [Mo^6+],effect of metal ion on activity of all three enzymes,"EG V, EG VI and EG VII; 1 mM metal ion",enhanced the activity
Oc1cc(O)c2c(c1)O[C@H](c1ccc(O)c(O)c1)[C@H](O)C2 [(−)epicatechin],effect of phenolic substances on enzyme activity,"EG V, EG VI and EG VII; pre-incubation of enzyme with compound in the absence of substrate",did not have a marked inhibitory effect
